The values that follow come from US11591326B2, “Inhibitors of protein arginine methyltransferase 5 (PRMT5), pharmaceutical products thereof, and methods thereof” (PHARMABLOCK SCIENCES (NANJING), INC., priority 2018, dated 2023).

pIC50: −log10 of the molar value. Where two headings read alike, the source gives them in different places.

The test system of one assay is Hep G2. Kind of assay: Liver cancer panel proliferation inhibition, Hep G2. The format is cell-based. The settings on record: Homo sapiens. The method, then: (§1) Inhibitory ability of compounds synthesized on the proliferation of three panels of cancer cell lines, including 5 breast cancer, 6 liver cancer, and 3 lung cancer cell lines were evaluated. Exponentially growing cells were seeded in the media of choice at various cell densities in 384-well plates with 20 ul per well and incubated overnight at 37° C., 5% CO2 incubator. Compounds were prepared as 10-point, 3-fold serial dilutions in DMSO, beginning at 6 mM. 1 μl of DMSO solutions from the compound stock plates were added to 99 ul of cell media (final top concentration of compound in the assay was 30 uM and the final concentration of DMSO was 0.5%). 20 μL of compound solutions in media were added to each well of plates with cells seeded. After adding compound solutions, assay plates were incubated for 8 and 12 days, respectively, at 37° C., 5% CO2. During this incubation period, cell media was changed every 4 days. After removing old media from cell plates, 40 ul of media with testing compounds dissolved, which were prepared by adding 1 ul of compound DMSO serial solutions to 199 ul of cell media, were added to the assay plates with the same layout as they were initially prepared. After 8 or 12 days, cell viability was measured using the CellTiter-Glo assay kit from Promega (Madison, Wis., USA) by quantitating the ATP present in the cell cultures. 20 μL of CellTiter-Glo reagent was added to each well of the cell plates. Luminescence was read after 10 minute of incubation with the Envision multiple plate reader from PerkinElmer (Waltham, Mass., USA). The concentrations of compounds inhibiting cell viability by 50% (IC50 values) were determined using a sigmoidal dose-response model (variable slopes, four parameters) in Prism 7 (La Jolla, Calif., USA).

Assay [1] deals with Human recombinant PRMT5 in complex with human recombinant MEP50 (Homo sapiens (Human), UniProt O14744). Kind of assay: PRMT5/MEP50 AlphaLISA enzyme inhibitory assay. As to conditions: PRMT5/MEP50 25 nM, SAM 10 μM, Biotin-H4 peptide 30 nM. The format is biochemical. An outline of the steps: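 Insect-cell-expressed PRMT5/MEP50 (25 nM) preincubated with SAM (10 μM), then 15 min with compound in pH 8.5 Tris buffer, 1% DMSO. Biotin-H4(1–21) peptide (30 nM) reaction ran 120 min at room temperature. H4R3 methylation detected by AlphaLISA; IC50 from four-parameter sigmoidal fit.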
Sequence of Human recombinant PRMT5 in complex with human recombinant MEP50 (O14744 whole entry): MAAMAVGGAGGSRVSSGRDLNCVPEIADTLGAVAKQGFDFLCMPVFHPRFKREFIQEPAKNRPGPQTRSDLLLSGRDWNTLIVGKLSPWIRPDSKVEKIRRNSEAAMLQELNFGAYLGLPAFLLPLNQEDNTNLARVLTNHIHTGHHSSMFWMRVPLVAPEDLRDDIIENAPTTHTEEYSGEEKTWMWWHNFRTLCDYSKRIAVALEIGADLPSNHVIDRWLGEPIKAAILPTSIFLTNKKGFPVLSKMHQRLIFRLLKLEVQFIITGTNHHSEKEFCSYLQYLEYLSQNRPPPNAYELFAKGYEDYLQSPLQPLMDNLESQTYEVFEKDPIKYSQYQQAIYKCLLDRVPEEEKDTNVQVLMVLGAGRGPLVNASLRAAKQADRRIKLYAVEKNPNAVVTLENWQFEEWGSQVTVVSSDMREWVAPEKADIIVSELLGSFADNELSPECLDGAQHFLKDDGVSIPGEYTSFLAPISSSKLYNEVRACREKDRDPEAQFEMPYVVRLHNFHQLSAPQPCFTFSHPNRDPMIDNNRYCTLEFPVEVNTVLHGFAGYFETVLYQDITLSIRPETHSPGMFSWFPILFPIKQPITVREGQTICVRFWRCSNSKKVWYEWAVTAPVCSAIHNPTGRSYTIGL
Sequence of Human recombinant PRMT5 in complex with human recombinant MEP50 (Q9BQA1 whole entry partner): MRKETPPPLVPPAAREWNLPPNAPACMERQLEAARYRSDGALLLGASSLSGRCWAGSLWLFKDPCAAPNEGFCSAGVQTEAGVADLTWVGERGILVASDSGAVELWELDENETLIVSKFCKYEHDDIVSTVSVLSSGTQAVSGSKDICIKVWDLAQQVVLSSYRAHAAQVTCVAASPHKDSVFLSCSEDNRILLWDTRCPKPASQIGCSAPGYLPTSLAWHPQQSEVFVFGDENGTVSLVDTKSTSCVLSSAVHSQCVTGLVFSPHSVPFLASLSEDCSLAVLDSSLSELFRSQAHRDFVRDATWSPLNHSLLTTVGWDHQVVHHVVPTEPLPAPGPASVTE
A general note: Alpha assays give light when donor and acceptor beads are brought close together.

A further assay relates to Huh7. Description: Liver cancer panel proliferation inhibition, Huh7. The assay is classed as cell-based. The settings on record: Homo sapiens. As to the method:
as §1

A further assay has as its system EBC-1. Description: Lung cancer panel proliferation inhibition, EBC-1. The assay is classed as cell-based. The settings on record: Homo sapiens. The method, then: as §1
A further assay deals with MDA-MB-468. Kind of assay: Breast cancer panel proliferation inhibition, MDA-MB-468. The format is cell-based. The settings on record: Homo sapiens. As to the method: as §1
Another assay concerns Z-138 tumor cells. Description: Mantle cell lymphoma (MCL) Z-138 xenograft efficacy study. The format is in vivo, CB-17 female SCID mice. As to conditions: administered orally BID for 21 days. The method, then:
For the in vivo efficacy studies, CB-17 female SCID mice (19-21 g; 10-12 weeks) were purchased from Shanghai SLAC laboratory animal CO. LTD. Each mouse was inoculated subcutaneously at the right flank with Z-138 tumor cells (5×10^6 cells/mouse, 50% Matrigel) in 0.2 mL of a mixture of base media and Matrigel (RPMI:Matrigel, 1:1) for tumor development. The treatments were started when the mean tumor size reached 121.55 mm^3, which was 11 days after inoculation. Mice were assigned into groups using a randomized block design. Testing compounds or vehicle (5% DMSO+45% PEG400+50% H2O) was administered orally BID for 21 days. Body weights were measured three times per week for the whole duration of the study. Tumor size was measured at the same schedule in two dimensions using a caliper, and the volume was expressed in cubic millimeters. Animals were euthanized 6 h after the final dose on day 21, at which time tumors were collected for analysis.

Where [2] appears, read: HepG2, 192 h, Hep G2, 8 days, read-out: IC50 (μM) 8 days.
[3] abbreviates: HepG2, 288 h, Hep G2, 12 days, read-out: IC50 (μM) 12 days.
[4] abbreviates: Huh-7, 192 h, Huh7, 8 days, read-out: IC50 (μM) 8 days.
Setting [5] is: Huh-7, 288 h, Huh7, 12 days, read-out: IC50 (μM) 12 days.
The mark [6] stands for this setting: 192 h, EBC-1, 8 days, read-out: IC50 (μM) 8 days.
The mark [7] stands for this setting: 288 h, EBC-1, 12 days, read-out: IC50 (μM) 12 days.
[8] abbreviates: 192 h, MDA-MB-468, 8 days, read-out: IC50 (μM) 8 days.
Where [9] appears, read: 288 h, MDA-MB-468, 12 days, read-out: IC50 (μM) 12 days.

What is called IC50 is the point on the concentration scale where inhibition reaches its midpoint. The pIC50 is the IC50 on a negative log10 scale, so that one unit is a factor of ten. For the molecule `CC(=O)N1CCC(Nc2ccc3c(c2)C(=O)N(C[C@H](O)CN2CCc4ccccc4C2)CC3)CC1` [Compound 24a, (R)-7-((1-acetylpiperidin-4-yl)amino)-2-(3-(3,4-dihydroisoquinolin-2(1H)-yl)-2-hydroxypropyl)-3,4-dihydroisoquinolin-1(2H)-one], the IC50 is 2.87 µM with Hep G2 (setting [2]); 0.77 µM in the assay on Hep G2 (setting [3]); 0.28 µM in the assay on Huh7 (setting [4]); 0.072 µM in the assay on Huh7 (setting [5]); 0.025 µM with EBC-1 (setting [6]); 0.03 µM in the assay on EBC-1 (setting [7]). In addition, the IC50 in the assay on MDA-MB-468 (setting [8]) was determined as 0.042 µM; with MDA-MB-468 (setting [9]), 0.0041 µM. Moreover, the pIC50 in assay [1] was 7.89.
`CC(=O)N1CCC(Nc2ccc3c(c2)C(=O)N(C[C@H](O)CN2CCc4ccccc4C2)CCO3)CC1` [Compound 52a, (R)-7-((1-acetylpiperidin-4-yl)amino)-4-(3-(3,4-dihydroisoquinolin-2(1H)-yl)-2-hydroxypropyl)-3,4-dihydrobenzo[f][1,4]oxazepin-5(2H)-one]: the IC50 amounted to 3.09 µM in the assay with Hep G2 (setting [2]); 0.97 µM in the assay with Hep G2 (setting [3]); 0.26 µM in the assay on Huh7 (setting [4]); 0.092 µM in the assay with Huh7 (setting [5]); 0.028 µM with EBC-1 (setting [6]); 0.031 µM in the assay on EBC-1 (setting [7]). Further, the IC50 in the assay with MDA-MB-468 (setting [8]) is 0.022 µM; in the assay on MDA-MB-468 (setting [9]), 0.0038 µM. Moreover, the pIC50 in assay [1] was 7.10. In the assay with Z-138 tumor cells, the “result in Z-138 xenograft efficacy studies (tumor volume change, FIG. 1)” value is “promising result”.
Regarding `CC(=O)N1CCC(Nc2cc(C(=O)NC[C@H](O)CN3CCc4ccccc4C3)ncn2)CC1` [Compound C3, reference compound], the IC50 with Hep G2 (setting [2]) is > 10 µM; in the assay on Hep G2 (setting [3]), 3.26 µM; with Huh7 (setting [4]), 0.23 µM; in the assay with Huh7 (setting [5]), 0.073 µM; with EBC-1 (setting [6]), 0.062 µM; in the assay on EBC-1 (setting [7]) it was 0.057 µM. The IC50 in the assay with MDA-MB-468 (setting [8]) worked out at 0.044 µM; in the assay on MDA-MB-468 (setting [9]), 0.0074 µM.
